Read-outs that look alike come from different tables or passages of the source. Square brackets hold non-standard residues; d marks the D form. Peptide text beside a SMILES is read from it.
What was measured:
wildtype ETA receptor [1] = target: T1, wildtype ETA receptor (Homo sapiens, UniProt P25101)
[2] = target: T2, ETA receptor variant R326Q (Homo sapiens, UniProt P25101, R326Q)
[3] = target: T3, ETA receptor variant L322A (Homo sapiens, UniProt P25101, L322A)
[4] = target: T4, ETA receptor variant I355A (Homo sapiens, UniProt P25101, I355A)
ETA receptor [5] = target: T5, ETA receptor (Homo sapiens, UniProt P25101); experiment: cell-based
wildtype ETA receptor [6] = target: T1, wildtype ETA receptor; experiment: cell-based
[7] = target: T2, ETA receptor variant R326Q; experiment: cell-based
[8] = target: T3, ETA receptor variant L322A; experiment: cell-based
[9] = target: T4, ETA receptor variant I355A; experiment: cell-based
ETA receptor [10] = target: T5, ETA receptor; conditions: PASMC, 5 µM ET-1, 20 min stimulation, maximal ERA concentration 1 µM, arithmetic means, normalized to macitentan analogs 1 or 8 (100%)
[11] = cited from earlier work
[12] = cited from earlier work; remark: listed apart in the source
[13] = target: T6, ETA receptor variant K329M (Homo sapiens, UniProt P25101, K329M)
[14] = target: T7, ETA receptor variant D351N (Homo sapiens, UniProt P25101, D351N)
[15] = target: T8, ETA receptor variant Q165A (Homo sapiens, UniProt P25101, Q165A)
[16] = target: T6, ETA receptor variant K329M; experiment: cell-based
[17] = target: T7, ETA receptor variant D351N; experiment: cell-based
[18] = target: T8, ETA receptor variant Q165A; experiment: cell-based
ETA receptor [19] = target: T5, ETA receptor; conditions: cited from earlier work; for ETA receptor occupancy half-life (t1/2): PASMC
[20] = pKa1, no method or reference printed
[21] = pKa2, no method or reference printed

T8 sequence (P25101 21-427 Q165A): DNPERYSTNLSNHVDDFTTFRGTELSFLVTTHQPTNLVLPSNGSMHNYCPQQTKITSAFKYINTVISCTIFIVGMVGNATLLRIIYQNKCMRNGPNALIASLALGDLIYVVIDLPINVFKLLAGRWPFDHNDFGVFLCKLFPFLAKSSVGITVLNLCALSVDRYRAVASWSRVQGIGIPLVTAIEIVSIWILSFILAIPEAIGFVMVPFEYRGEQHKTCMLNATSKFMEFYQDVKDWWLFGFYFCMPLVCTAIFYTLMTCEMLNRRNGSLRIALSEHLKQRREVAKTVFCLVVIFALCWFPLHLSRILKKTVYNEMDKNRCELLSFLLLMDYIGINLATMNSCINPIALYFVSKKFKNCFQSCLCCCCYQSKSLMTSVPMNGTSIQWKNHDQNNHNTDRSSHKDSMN
T7 sequence (P25101 21-427 D351N): as the sequence (P25101 21-427 Q165A) above, with A145Q, D331N counted along it
T4 sequence (P25101 21-427 I355A): as the sequence (P25101 21-427 Q165A) above, with A145Q, I335A counted along it
T6 sequence (P25101 21-427 K329M): as the sequence (P25101 21-427 Q165A) above, with A145Q, K309M counted along it
T3 sequence (P25101 21-427 L322A): as the sequence (P25101 21-427 Q165A) above, with A145Q, L302A counted along it
T1 sequence (P25101 21-427): as the sequence (P25101 21-427 Q165A) above, with A145Q counted along it
T5 sequence (P25101 21-427): as the sequence (P25101 21-427 Q165A) above, with A145Q counted along it
T2 sequence (P25101 21-427 R326Q): as the sequence (P25101 21-427 Q165A) above, with A145Q, R306Q counted along it

Structure (SMILES)	IC50 shift versus wildtype (fold) (wildtype ETA receptor [1])	IC50 shift versus wildtype (fold) [2] [fold]	IC50 shift versus wildtype (fold) [3] [fold]	IC50 shift versus wildtype (fold) [4] [fold]	IC50 (ETA receptor [5]) [M]	IC50 (wildtype ETA receptor [6]) [nM]	IC50 [7] [nM]	IC50 [8] [nM]	IC50 [9] [nM]	further results
COc1ccccc1Oc1c(NS(=O)(=O)c2ccc(C)cn2)nc(-c2ccnc(-c3nnn[nH]3)c2)nc1OCCO [clazosentan]	1	26	1.2	32	3.3e-11	0.085	2.2	0.1	2.7	pKa (physchem; [20]): 4.5; pKa (physchem; [21]): 3.3
COc1ccccc1Oc1c(NS(=O)(=O)c2ccc(C(C)(C)C)cc2)nc(-c2ncccn2)nc1OCCO [bosentan]										Insurmountability (%) (ETA receptor [10]): 0%; pKa [11]: 5.1; logD [12]: 1.3
CCCCNS(=O)(=O)Nc1ncnc(OCCOc2ncc(Br)cn2)c1-c1ccc(Br)cc1 [macitentan analog 1]	1	7.1	188	0.3	9.3e-11	0.17	1.2	32	0.047	
CCS(=O)(=O)Nc1ncnc(OCCOc2ncc(Br)cn2)c1-c1ccc(Br)cc1 [macitentan analog 4]					1.2e-09					
COC(c1ccccc1)(c1ccccc1)[C@H](Oc1nc(C)cc(C)n1)C(=O)O [ambrisentan]	1.0	317	15	2.9	4.4e-10	2.8	887	41	8.1	IC50 shift versus wildtype (fold) [13]: 0.2 fold; IC50 shift versus wildtype (fold) [14]: 1.6 fold; IC50 shift versus wildtype (fold) [15]: 1129 fold; IC50 [16]: 0.58 nM; IC50 [17]: 4.5 nM; IC50 [18]: 3160 nM; ETA receptor occupancy half-life (t1/2) (ETA receptor [19]): 1 min; pKa [11]: 3.5; logD [12]: −0.4
CCCS(=O)(=O)Nc1ncnc(OCCOc2ncc(Br)cn2)c1-c1ccc(Br)cc1 [macitentan analog 5]					3.8e-10					
CCNS(=O)(=O)Nc1ncnc(OCCOc2ncc(Br)cn2)c1-c1ccc(Br)cc1 [macitentan analog 2]	1	7.1	228	0.8	5.1e-10	4.8	34	1090	3.9	
CC(C)C[C@@H]1NC(=O)[C@@H](C(C)C)NC(=O)[C@@H]2CCCN2C(=O)[C@@H](CC(=O)O)NC(=O)[C@@H](Cc2c[nH]c3ccccc23)NC1=O [BQ123] (cyclo(L[dW][dD]P[dV]))										IC50 (ETA receptor [5]; log IC50 (M), calcium flux, PASMC, 4 nM–[…] nM ET-1 (EC80)): 1.26e-09 M
O=S(=O)(NCc1ccccc1)Nc1ncnc(OCCOc2ncc(Br)cn2)c1-c1ccc(Br)cc1 [macitentan analog 3]					8.5e-11					
CCCNS(=O)(=O)Nc1ncnc(OCCOc2ncc(Br)cn2)c1-c1ccc(Br)cc1 [macitentan, N-[5-(4-bromophenyl)-6-[2-[(5-bromo-2-pyrimidinyl)oxy]ethoxy]-4-pyrimidinyl]-N′-propylsulfamide]	1.0	6.3	148	0.9	1.7e-10	1.2	7.6	178	1.1	Insurmountability (%) (ETA receptor [10]): 64%; IC50 shift versus wildtype (fold) [13]: 0.5 fold; IC50 shift versus wildtype (fold) [14]: 1.2 fold; IC50 shift versus wildtype (fold) [15]: 174 fold; IC50 [16]: 0.58 nM; IC50 [17]: 1.5 nM; IC50 [18]: 209 nM; ETA receptor occupancy half-life (t1/2) (ETA receptor [19]): ~17 min; increase of receptor occupancy half-life compared to ambrisentan and bosentan (ETA receptor [19]; human primary PASMC): ~20 fold; logD [12]: 2.9

Now from value to compound, other results behind:

IC50 shift versus wildtype (fold) (wildtype ETA receptor [1])	IC50 shift versus wildtype (fold) [2] [fold]	IC50 shift versus wildtype (fold) [3] [fold]	IC50 shift versus wildtype (fold) [4] [fold]	IC50 (ETA receptor [5]) [M]	IC50 (wildtype ETA receptor [6]) [nM]	IC50 [7] [nM]	IC50 [8] [nM]	IC50 [9] [nM]	Structure (SMILES)	further results
1	50	2.0	54	5.2e-11	0.26	13	0.53	14	COc1ccccc1Oc1c(NS(=O)(=O)c2ccc(C(C)C)cn2)nc(-c2ccnc(-c3nnn[nH]3)c2)nc1OCCO [tezosentan]	pKa (physchem; [20]): 4.4; pKa (physchem; [21]): 4.1
				3.5e-08					CCCNS(=O)(=O)Nc1ncnc(OCCCOc2ncc(Br)cn2)c1-c1ccc(Br)cc1 [macitentan analog 11]	
1	6.5	66	1.1	3.9e-09	41	268	2690	45	CCCNS(=O)(=O)Nc1ncnc(OCCOc2ncc(OC)cn2)c1-c1ccc(Br)cc1 [macitentan analog 7]	
				2.55e-07					CCCNS(=O)(=O)Nc1ncnc(OCCCCOc2ncc(Br)cn2)c1-c1ccc(Br)cc1 [macitentan analog 12]	
1	3.3	136	0.6	4.7e-10	14	46	1900	8.6	CCCNS(=O)(=O)Nc1ncnc(OCCOc2ncc(Br)cn2)c1-c1ccc(Cl)cc1 [macitentan analog 9]	
				6.5e-11					CCCNS(=O)(=O)Nc1ncnc(OCCOc2ncc(I)cn2)c1-c1ccc(Br)cc1 [macitentan analog 8]	
				4.31e-07					CCCNS(=O)(=O)Nc1ncnc(OCCOc2ccc(Br)cc2)c1-c1ccc(Br)cc1 [macitentan analog 10]	
				6.2e-10					CCCCS(=O)(=O)Nc1ncnc(OCCOc2ncc(Br)cn2)c1-c1ccc(Br)cc1 [macitentan analog 6]	
